Entries after “also recorded” stand apart in the source; their conditions may differ. Positions of bridges follow the written chain, without caps; N, C: chain ends. Non-standard residues stand in square brackets, D forms with d. Primed or numbered codes have the meaning given here. FAM = 5(6)-carboxyfluorescein label; S5 = C=CCCC[C@](C)(N)C(=O)O; PEG3′ = PEG3 spacer
Key:
primary cortical neurons = assay: Uptake of FAM-labeled peptide in primary cortical neurons (confocal imaging); format: cell-based, mouse; conditions: neurons expressing G2019S-LRRK2, 1 µM
[1] = test system: primary cortical neurons expressing G2019S-LRRK2; assay: Assessment of neuronal death (apoptotic nuclear features of transfected neurons); format: cell-based, mouse; conditions: 48hr treatment, vs vehicle
Text: Disruption of the LRRK2-FADD PPI is neuroprotective. It has been previously shown that over-expression of mutant LRRK2 (G2019S or other pathogenic mutations) in primary cortical neurons results in apoptotic death of the neurons (see Iaccarino C, Crosio C, Vitale C, Sanna G, Carri MT, Barone P (2007) Apoptotic mechanisms in mutant LRRK2-mediated cell death. Hum Mol Genet 16, 1319-1326); and this example continues this area of identifying pathway(s) underlying cell-autonomous neuronal death in models of LRRK2-PD. […] Disruption of this interaction by dominant negative fragments of both FADD and LRRK2, or by deletion of the predicted FADD-binding domain within LRRK2, is neuroprotective against over-expression of mutant LRRK2. To determine whether FARMS could effectively disrupt the apoptotic death of primary neurons induced by pathogenic LRRK2, mouse embryonic cortical neurons were transiently transfected with G2019S-LRRK2 and increasing concentrations of the FARMS peptide were added. In cultures of neurons expressing G2019S-LRRK2, apoptotic Flag-positive neurons with characteristic fragmented and condensed nuclear apoptotic features, were observed as has been reported previously. […] A third neuron is visible within this field (with a condensed nucleus), however it is not expressing Flag-LRRK2, so would not be included in the assessment of neuronal death. the dose response of neuroprotection of FARMS was determined by counting the percentage of transfected neurons (stained with anti-Flag antibodies).
Assessment of Neuronal Death. […] Cells were centrifuged and counted and plated on poly-D-lysine coated glass coverslips at a density of 150,000/cm^2 in BrainPhys neuronal culture medium (StemCell Technologies) supplemented with SM1 Neuronal Supplement (StemCell Technologies), L-glutamine (0.5 mM) and […]. […] For quantification of apoptotic neuronal profiles, we used the approach described by Antoniou and colleagues. Briefly, individual Flag-positive neurons were assessed by a research blinded to the experimental conditions.

FARM5: FAM-labeled hydrocarbon-stapled FADD Armadillo domain peptide; mass fits SEQ ID NO. 6 KVADLVQEVQQAXDLQXRSK ({FAM-PEG3′}-KVADLVQEVQQA[S5]DLQ[S5]RSK-NH2; staple 13-17; also: FAM label, optionally 5(6)FAM-PEG3 on N-terminal lysine) [FAM-labeled hydrocarbon-stapled FADD Armadillo domain peptide; 6 …XDLQXRSK]
fluorescent signal from the FAM peptide tag in neurons (primary cortical neurons): diffusely distributed throughout most neurons
percentage of neurons with apoptotic profiles ([1]; 0.1 µM): unable to significantly block apoptotic neuronal death
percentage of neurons with apoptotic profiles ([1]; 1 µM, listed as FARMS): significantly reduced; also recorded: reduced evidence of chromatin condensation
percentage of neurons with apoptotic profiles ([1]; 10 µM, listed as FARMS): significantly reduced; also recorded: restored neuronal death to WT levels
